According to patent US20260256799A1, “INHIBITORS FOR TREATING SOLID TUMOURS” (UNIVERSITY OF SOUTHAMPTON, priority 2023, published 2026):

How the values were obtained:
TC-1 cells = experiment: Isograft model TC-1 alone (control, myoCAF-low tumours); type: in vivo, C57/BL6 female mice; conditions: AZD0156 20 mg/Kg oral gavage daily
Protocol: (§1) All mouse experiments were performed according to national and international guidelines and were approved by the authors' institutional review board and the UK Home Office. Xenograft model: 6.7×10^5 PT cells±2×10^6 HFFF2 cells were resuspended in 100 μl PBS and injected s.c. in the flank of partially immunocompromised, male RAG1−/−C57BL/6 mice (3-5 months old). Isograft models: 0.5×10^5 TC-1 cells±3×10^5 TGF-β1-treated murine lung fibroblasts (myoMLFs) or 1×10^5 MC38 cells±5×10^5 TGF-β1-treated murine colon fibroblasts (myoMCFs) were resuspended in 100 μl PBS and injected s.c. in the flank of C57/BL6 female mice (6-8 weeks old). 5-8 animals for both models were used per group. Tumour size was measured over time using an electronic caliper and calculated using the formula 4π/3×r3 [radius (r) calculated from the average diameter, measured as the tumour width and length]. […]
The area under the curve (AUC) for each individual tumour within a treatment group for multiple experiments was analyzed by ordinary Two-way Anova using as two independent variables ‘the experiments’ (factor 1) and ‘the treatments’ (factor 2), and as dependent variable ‘the AUC’ of each mouse; then, the inventors looked at just factor 2. […]

[1] = system: TC-1 cells + TGF-β1-treated murine lung fibroblasts (myoMLF); experiment: Isograft model TC-1 + myoMLF (myoCAF-high tumours); type: in vivo, C57/BL6 female mice
Protocol: SMA immunohistochemistry (IHC; Sigma Aldrich; A2547) on FFPE tissues was performed as previously: in brief, tissues were fixed in 4% paraformaldehyde and embedded in paraffin. 4 μm sections were de-paraffinized, rehydrated and antigen retrieved for 20 minutes at 97° C. using a predefined program on the Dako PT links. Antigen retrieval was performed using Envision FLEX High pH. Endogenous peroxidase activity was blocked using 3% hydrogen peroxide. Mouse Ig blocking reagent (M.O.M kit vector labs) was applied for 1 hour. Primary antibody incubation (1:100) in M.O.M diluent (vector labs) was for 20 minutes. For secondary amplification, M.O.M. Biotinylated anti-Mouse IgG reagentwas applied for 10 minutes followed by Vectorstain elite ABC reagent (vector labs). Chromogenic visualization was completed with 2×5 minute washes in DAB and counterstaining with Haematoxylin. For IHC of CD8 (in house; YTS169), CD4 (BD; RM4-5) and F480 (AbD Serotec; CI:A3-1) tissues were frozen in OCT. 8 μm sections were fixed in 100% acetone for 10 minutes. Endogenous peroxidase activity was blocked using neat peroxidase suppressor (Peirce) for 15 minutes. Sections were blocked for 30 minutes with 2.5% goat serum. Primary antibodies were applied for 2 hours −CD8 (1:800), CD4 (1:100), F480 (1:100). Appropriate species HRP polymer (ImmunoPress, Vector Laboratories) was applied to sections for 30 minutes. Vector NovaRED chromagen substrate (Vector Laboratories) was applied for 2-10 minutes then counterstained with haematoxylin (Vector Laboratories) for 30 seconds. Images were captured using an Olympus CKX41 microscope with Cell B imaging software. % area of staining was calculated using Fiji software (java) by running the ‘color deconvolution’ tool analyzing H DAB. The image was appropriately thresholded based on the ‘color 2’ image. The same thresholding was applied to all images from the same experiment. Regions of interest (margin & core) were confirmed by a pathologist, and each point plotted represents the mean of a minimum of 4 independent fields of view (field diameter=2 mm) from margin and core (one section per mouse). The mean was calculated from 2 or 3 mice/experimental group.
Quantification of SMA staining in mouse tumours was carried out using color thresholding and deconvolution in Fiji. At least three independent fields of view (FoV) of at least three tumours were randomly selected by a consultant pathologist (GJT) to generate a mean value per tumour representing the SMA-positive area %, which was compared between treatment groups.
CD8 and CD4 IHC was performed on frozen tissue embedded in OCT using [YTS169 (CD8; in house) and RM4-5 (CD4; BD) (FIG. 6c & FIG. 12e). 8 μm sections were fixed in 100% acetone for 10 minutes and stained as previously shown. CD8 and CD4 IHC on FFPE was performed using 98941S and 25229S respectively (Cell Signaling; FIG. 6a,g,k,o and FIG. 12a-c,g & 13m,o) using the Leica Bond system according to the manufacturer's instructions (Protocol F mouse 4; HIER 20 MINUTES ER1; Temperature-Ambient; 1:100 dilution; 20 min of NGS blocking incubation). CD8 and CD4 T-cells were counted from ten randomly selected fields of view (FoV) from the tumour by a consultant pathologist (GJT).
as §1, with “group.” for “group. Tumour size was measured over time using an electronic caliper and calculated using the formula 4π/3×r3 [radius (r) calculated from the average diameter, measured as the tumour width and length].”

[2] = AZD0156 20 mg/Kg oral gavage daily
[3] = AZD0156, myoCAF-high TC-1 tumours

Q: Which results are given for `CN(C)CCCOc1ccc(-c2ccc3ncc4c(c3c2)n(C2CCOCC2)c(=O)n4C)cn1` [AZD0156]?
A: growth of control (myoCAF-low) tumours (TC-1 cells): minimal effect; myofibroblast accumulation (SMA IHC) [1, 2]: suppressed; tumour growth [1, 2]: slowed; CD4 T-cell infiltration (IHC) [1, 3]: unaffected; location of CD8 T-cells, tumour periphery to tumour core (IHC) [1, 3]: significant relocation; CD8 T-cell phenotype/function (flow cytometry) ([1]; AZD0156, myoCAF-high tumours): did not affect; overall survival ([1]; AZD0156 daily at day 15-28): improved; intratumoural myoCAF accumulation ([1]; AZD0156 monotherapy in the RAH vaccine experiment): effective in reducing
